Source: the supplement of paper PMC11061612

Key:
Assay in all cases: Bliss excess, mean over the matrix (fraction); higher = more synergy
[1] = system: MDA-MB-415 (Breast Carcinoma)
Procedure, shortened: (§1)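 After 24 hours at 37°C and 5% CO2 in 1536-well plates, cells in DMEM/F12 or RPMI plus 10% FBS received two-drug dose matrices for 72 hours. Viability came from CellTiter-Glo 2.0 luminescence and was scaled as inhibition, anchored at 0 by vehicle wells and at 1 by blank wells. Combination Emax is taken as the second-highest inhibition in the matrix, and Bliss excess as the observed combination effect less EA + EB − EA·EB, with EA and EB the single-agent effects.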

[2] = system: NCI-H1876 (Small Cell Lung Carcinoma)
Procedure, shortened: as §1

[3] = system: CL-11 (Colorectal Carcinoma)
Procedure, shortened: as §1

NCI-H226 (Mesothelioma) = system: NCI-H226 (Mesothelioma)
Procedure, shortened: as §1

[4] = system: BHT-101 (Thyroid Gland Carcinoma)
Procedure, shortened: as §1

T47D (Breast Carcinoma) = system: T47D (Breast Carcinoma)
Procedure, shortened: as §1

[5] = system: MONO-MAC-6 (Acute Myeloid Leukemia)
Procedure, shortened: as §1

[6] = system: ZR-75-30 (Breast Carcinoma)
Procedure, shortened: as §1

[7] = system: TUR (Acute Myeloid Leukemia)
Procedure, shortened: as §1

AM-38 (Glioblastoma) = system: AM-38 (Glioblastoma)
Procedure, shortened: as §1

[8] = system: PA-TU-8988T (Pancreatic Carcinoma)
Procedure, shortened: as §1

[9] = system: NCI-H3118 (Head and Neck Carcinoma)
Procedure, shortened: as §1

WM35 (Melanoma) = system: WM35 (Melanoma)
Procedure, shortened: as §1

[10] = system: T84 (Colorectal Carcinoma)
Procedure, shortened: as §1

NCI-H2373 (Mesothelioma) = system: NCI-H2373 (Mesothelioma)
Procedure, shortened: as §1

[11] = system: NCI-H596 (Other Solid Carcinomas)
Procedure, shortened: as §1

[12] = system: P30-OHK (B-Lymphoblastic Leukemia)
Procedure, shortened: as §1

[13] = system: P32-ISH (Burkitt's Lymphoma)
Procedure, shortened: as §1

[14] = system: OVCAR-3 (Ovarian Carcinoma)
Procedure, shortened: as §1

[15] = system: BxPC-3 (Pancreatic Carcinoma)
Procedure, shortened: as §1

Compound	Bliss excess [1]	Bliss excess [2]	Bliss excess [3]	Bliss excess (NCI-H226 (Mesothelioma))	Bliss excess [4]	Bliss excess (T47D (Breast Carcinoma))	Bliss excess [5]	Bliss excess [6]	Bliss excess [7]	Bliss excess (AM-38 (Glioblastoma))	Bliss excess [8]	Bliss excess [9]	Bliss excess (WM35 (Melanoma))	Bliss excess [10]	Bliss excess (NCI-H2373 (Mesothelioma))	Bliss excess [11]	Bliss excess [12]	Bliss excess [13]	Bliss excess [14]	Bliss excess [15]
CC1(C)CCC(CN2CCN(c3ccc(C(=O)NS(=O)(=O)c4ccc(NCC5CCOCC5)c([N+](=O)[O-])c4)c(Oc4cnc5[nH]ccc5c4)c3)CC2)=C(c2ccc(Cl)cc2)C1 [Venetoclax] + CN(C)CCCOc1ccc(-c2ccc3ncc4c(c3c2)n(C2CCOCC2)c(=O)n4C)cn1 [AZD0156] (first compound max 1 µM, 7x7, partner max 1 µM)	-0.0869	0.0501	-0.0419	-0.0536	-0.0272	-0.0366	0.0233	-0.0422	-0.0102	-0.0183	-0.0102	0.005	-0.0197	-0.0452	-0.0564	-0.0377	0.0881	-0.0083	-0.0303	-0.0304
NC1(C(=O)N[C@@H](CCO)c2ccc(Cl)cc2)CCN(c2ncnc3[nH]ccc23)CC1 [Capivasertib] + CC(=O)c1c(C)c2cnc(Nc3ccc(N4CCNCC4)cn3)nc2n(C2CCCC2)c1=O [Palbociclib] (first compound max 10 µM, 7x7, partner max 10 µM)	-0.0234	-0.0263	-0.0222	-0.0792	-0.0022	-0.0115	0.0034	-0.0173	0.0128	0.0392	-0.0168	0.0463	0.01	-0.0175	-0.0016	-0.0856	0.0689	0.0066	-0.0396	-0.0396
CCN(CCO)CCCOc1ccc2c(Nc3cc(CC(=O)Nc4cccc(F)c4)[nH]n3)ncnc2c1 [AZD2811] + O=C(c1cc(Cc2n[nH]c(=O)c3ccccc23)ccc1F)N1CCN(C(=O)C2CC2)CC1 [Olaparib] (first compound max 1 µM, 7x7, partner max 10 µM)	0.0059	-0.114	0.0084	-0.0448	-0.0193	0.005	0.0056	-0.0225	0.0637	0.0471	0.0228	0.0075	0.0069	-0.0067	0.0244	-0.0372	-0.04	-0.035	-0.0051	0.0032
Cc1c2c(nn1C)CSCc1cc(n(C)n1)CSc1cc(c3ccccc3c1)OCCCc1c(C(=O)O)n(C)c3c-2c(Cl)ccc13 [AZD5991] + CN(C)CCCOc1ccc(-c2ccc3ncc4c(c3c2)n(C2CCOCC2)c(=O)n4C)cn1 [AZD0156] (first compound max 1 µM, 7x7, partner max 1 µM)	-0.0183	0.0541	-0.0081	0.0125	0.0638	0.0093	-0.0433	-0.0128	0.0377	0.0291	0.0146	0.0092	0.0155	-0.0112	-0.0069	-0.0088	-0.0042	0.0083	0.0405	0.0229
CN(CCO)CC[C@H](CSc1ccccc1)Nc1ccc(S(=O)(=O)NC(=O)c2ccc(N3CCC([C@@H](O)c4ccccc4-c4ccc(Cl)cc4)CC3)cc2)cc1S(=O)(=O)C(F)(F)F [AZD4320] + CN(C)CCCOc1ccc(-c2ccc3ncc4c(c3c2)n(C2CCOCC2)c(=O)n4C)cn1 [AZD0156] (first compound max 1 µM, 7x7, partner max 1 µM)	-0.114	0.0374	-0.0441	-0.0589	-0.0193	-0.0056	0.0324	-0.038	-0.0023	0.112	-0.005	-0.044	-0.0141	-0.0243	-0.0545	-0.0184	0.0275	0.0018	-0.0407	-0.0239
C[C@@H]1COCCN1c1cc(C2([S@](C)(=N)=O)CC2)nc(-c2ccnc3[nH]ccc23)n1 [AZD6738] + O=C(c1cc(Cc2n[nH]c(=O)c3ccccc23)ccc1F)N1CCN(C(=O)C2CC2)CC1 [Olaparib] (first compound max 10 µM, 7x7, partner max 10 µM)	0.0239	-0.005	0.0013	-0.0156	0.016	0.0359	-0.0438	-0.0408	0.0244	0.0226	0.0472	-0.0038	0.0084	-0.027	0.0165	-0.0841	0.0469	-0.0424	0.0782	0.0231
Cc1c2c(nn1C)CSCc1cc(n(C)n1)CSc1cc(c3ccccc3c1)OCCCc1c(C(=O)O)n(C)c3c-2c(Cl)ccc13 [AZD5991] + CCN(CCO)CCCOc1ccc2c(Nc3cc(CC(=O)Nc4cccc(F)c4)[nH]n3)ncnc2c1 [AZD2811] (first compound max 1 µM, 7x7, partner max 1 µM)	-0.108	0.058	-0.021	0.0097	-0.0507	-0.0096	0.0258	0.0825	0.121	0.0138	0.0689	0.0796	0.0333	0.0441	-0.0088	-0.102	-0.0342	-0.0194	0.0647	0.0412
NC1(C(=O)N[C@@H](CCO)c2ccc(Cl)cc2)CCN(c2ncnc3[nH]ccc23)CC1 [Capivasertib] + CCN(CCO)CCCOc1ccc2c(Nc3cc(CC(=O)Nc4cccc(F)c4)[nH]n3)ncnc2c1 [AZD2811] (first compound max 10 µM, 7x7, partner max 1 µM)	0.0001	0.0781	-0.0034	-0.0459	-0.0124	0.071	0.0633	-0.0115	0.0286	0.0122	0.103	-0.0242	-0.0471	-0.104	-0.079	0.017	-0.044	-0.021	0.0224	-0.0545
Cn1cnc2c(F)c(Nc3ccc(Br)cc3Cl)c(C(=O)NOCCO)cc21 [Selumetinib] + CC(C)n1c(=O)n(C)c2cnc3cc(F)c(-c4ccc(OCCCN5CCCCC5)nc4)cc3c21 [AZD1390] (first compound max 10 µM, 7x7, partner max 0.3 µM)	-0.047	0.0068	0.0011	-0.0344	-0.0429	-0.0468	-0.0166	-0.044	-0.0122	-0.0389	-0.0269	0.0525	-0.0551	-0.0265	-0.0044	-0.0459	-0.0043	-0.0083	-0.0387	-0.0518
CN(C)CCCOc1ccc(-c2ccc3ncc4c(c3c2)n(C2CCOCC2)c(=O)n4C)cn1 [AZD0156] + C=CCn1c(=O)c2cnc(Nc3ccc(N4CCN(C)CC4)cc3)nc2n1-c1cccc(C(C)(C)O)n1 [AZD1775] (first compound max 1 µM, partner max 1 µM)	-0.0615	0.0171	-0.0547	-0.0862	-0.0209	0.0108	0.0017	-0.0398	0.0088	0.0248	-0.0504	-0.0933	-0.0166	-0.0631	-0.0126	0.0029	0.0179	-0.011	-0.02	-0.0506
Cc1nc(Nc2ncc(C(=O)Nc3c(C)cccc3Cl)s2)cc(N2CCN(CCO)CC2)n1 [Dasatinib] + CC(=O)Nc1cccc(-n2c(=O)n(C3CC3)c(=O)c3c(Nc4ccc(I)cc4F)n(C)c(=O)c(C)c32)c1 [Trametinib] (first compound max 2 µM, 7x7, partner max 1 µM)	-0.0197	-0.0548	0.0766	0.027	0.0569	-0.0855	-0.0052	-0.0511	-0.0919	0.0091	0.136	-0.0604	-0.0182	-0.0174	-0.0756	-0.0018	-0.0442	0.0545	-0.001	0.0009
COc1cc2ncnc(Nc3ccc(F)c(Cl)c3)c2cc1OCCCN1CCOCC1 [Gefitinib] + CC(C)n1c(=O)n(C)c2cnc3cc(F)c(-c4ccc(OCCCN5CCCCC5)nc4)cc3c21 [AZD1390] (first compound max 10 µM, 7x7, partner max 0.3 µM)	-0.103	-0.074	-0.0474	-0.0661	-0.035	-0.0438	-0.0545	-0.0587	-0.0185	-0.0811	-0.0342	-0.0011	-0.0641	-0.035	-0.0751	-0.0474	-0.0298	-0.0116	-0.056	-0.0692
CN(C)CCCOc1ccc(-c2ccc3ncc4c(c3c2)n(C2CCOCC2)c(=O)n4C)cn1 [AZD0156] + CCN(CCO)CCCOc1ccc2c(Nc3cc(CC(=O)Nc4cccc(F)c4)[nH]n3)ncnc2c1 [AZD2811] (first compound max 1 µM, 7x7, partner max 1 µM)	-0.0087	-0.0557	-0.0288	-0.0676	-0.0273	-0.0062	0.053	-0.0415	0.0563	0.0165	0.0079	-0.0316	-0.0426	-0.0248	-0.0048	-0.005	-0.0439	-0.0042	-0.01	-0.0212
CN(C)CCCOc1ccc(-c2ccc3ncc4c(c3c2)n(C2CCOCC2)c(=O)n4C)cn1 [AZD0156] + C[C@@H]1COCCN1C2=NC(=NC(=C2)C3(CC3)[S@](=N)(=O)C)C4=C5C=CNC5=NC=C4 [AZD6738] (first compound max 1 µM, 7x7, partner max 10 µM)	-0.007	0.0226	-0.0265	-0.0581	0.0222	-0.0223	-0.0253	-0.0305	0.0261	0.0677	0.0423	-0.0235	0.0618	0.0182	-0.0065	-0.009	0.0152	0.0435	0.0353	-0.0083
